The text below walks through data of patent US8431556B2, “C-21-keto lupane derivatives preparation and use thereof” (Vertex Pharmaceuticals Incorporated, priority 2008, dated 2013).

One experiment concerns HIV-1 (HIVIIIB). Put plainly: HIV-1 replication in MT2 cell line with and without 30% human serum (viral RT activity in supernatant). In kind it is cell-based. The following applies: Human immunodeficiency virus 1, MT2, MT-2 cells, with 30% human serum, average IC50 if tested more than once, read-out: MT-2 (HIVIIIB) with 30% HS IC50 range. As for the experimental part: HIV-1 Replication in MT2 cell line with and without 30% human serum: The cells are infected at a Multiciplicity of Infection (MOI) of 0.5 for 3 h and then washed twice with complete media to remove residual virus. Cells are then resuspended at 0.5×10^6/ml in complete medium (RPMI, 10% FBS, 1% sodium pyruvate), and seeded into 96-well plates (6.25×10^4/well). The cells are cultured in the presence or absence of various concentrations of test compounds in serial dilutions for 3 days at 37° C. The test compounds are serially diluted in complete medium supplemented or not with 30% human serum. After 3 days, 100 μL of cultured medium with cells are replaced with 120 μL of freshly diluted test compounds in complete medium containing or not 30% Human serum. The level of HIV-1 replication is determined at days 5 after infection by the presence of viral RT activity in harvested supernatant fluid. The IC50 and IC90 values for the virus replication are determined by using GRAPHPAD PRISM software.
The IC50 of the compounds tested in accordance with the HIV replication activity assay MT-2 (HIVIIIB) are represented in Table 4 (without HS) and Table 5 (with 30% HS)
For `COC(=O)N1CCN(C(=O)[C@@]23CC[C@]4(C)[C@H](CC[C@@H]5[C@@]6(C)CC[C@H](OC(=O)CC(C)(C)C(=O)O)C(C)(C)[C@@H]6CC[C@]54C)C2=C(C(C)C)C(=O)C3)CC1` [9-40, 3β-O-(3′,3′-Dimethylsuccinyl)-21-oxolup-18-en-28-oic acid N-1-acetyl-piperazine-4-carboxylic acid methyl ester], the IC50 is below 0.199 µM. On to `Cc1cc(NC(=O)[C@@]23CC[C@]4(C)C(CCC5[C@@]6(C)CC[C@H](OC(=O)CC(C)(C)C(=O)O)C(C)(C)C6CC[C@]54C)C2=C(C(C)C)C(=O)C3)no1` (stereo partly drawn) [9-91, 3β-O-(3′,3′-Dimethylsuccinyl)-21-oxolup-18-en-28-oic acid N-(5-methyl-isoxazol-3-yl)-acetamide], for which the IC50 was below 0.199 µM. On the same count and under the same terms, next, `CC(C)C1=C2[C@H]3CC[C@@H]4[C@@]5(C)CC[C@H](OC(=O)CC(C)(C)C(=O)O)C(C)(C)[C@@H]5CC[C@@]4(C)[C@]3(C)CC[C@@]2(C(=O)N2CCN(C)C(=O)C2)CC1=O` [9-46, 3β-O-(3′,3′-Dimethylsuccinyl)-21-oxolup-18-en-28-oic acid N-4-(1-methyl-piperazi-2-one)-acetamide]: below 0.199 µM; `CC(C)C1=C2C3CCC4[C@@]5(C)CC[C@H](OC(=O)CC(C)(C)C(=O)O)C(C)(C)C5CC[C@@]4(C)[C@]3(C)CC[C@@]2(C(=O)NC[C@H]2CCCN2C)CC1=O` (stereo partly drawn) [9-83, 3β-O-(3′,3′-Dimethylsuccinyl)-21-oxolup-18-en-28-oic acid N-((R)-1-methyl-pyrrolidin-2-ylmethyl)-acetamide]: below 0.199 µM. The same measure, in the same setting: next, `CC(C)C1=C2[C@H]3CC[C@@H]4[C@@]5(C)CC[C@H](OC(=O)CC(C)(C)C(=O)O)C(C)(C)[C@@H]5CC[C@@]4(C)[C@]3(C)CC[C@@]2(C(=O)Nc2cnc3ccccc3c2)CC1=O` [9-60, 3β-O-(3′,3′-Dimethylsuccinyl)-21-oxolup-18-en-28-oic acid N-quinolin-3-yl-acetamide]: below 0.199 µM; `CC(C)C1=C2C3CCC4[C@@]5(C)CC[C@H](OC(=O)CC(C)(C)C(=O)O)C(C)(C)C5CC[C@@]4(C)[C@]3(C)CC[C@@]2(C(=O)NC(C)(C)C(F)(F)F)CC1=O` (stereo partly drawn) [9-77, 3β-O-(3′,3′-Dimethylsuccinyl)-21-oxolup-18-en-28-oic acid N-(2,2,2-trifluoro-1,1-dimethyl-ethyl)-acetamide]: below 0.199 µM; `CC(C)C1=C2[C@H]3CC[C@@H]4[C@@]5(C)CC[C@H](OC(=O)CC(C)(C)C(=O)O)C(C)(C)[C@@H]5CC[C@@]4(C)[C@]3(C)CC[C@@]2(C(=O)NCc2ccccn2)CC1=O` [9-16, 3β-O-(3′,3′-Dimethylsuccinyl)-21-oxolup-18-en-28-oic acid N-pyridin-2-ylmethylamide]: below 0.199 µM.

For the compound `CC(C)C1=C2[C@H]3CC[C@@H]4[C@@]5(C)CC[C@H](OC(=O)CC(C)(C)C(=O)O)C(C)(C)[C@@H]5CC[C@@]4(C)[C@]3(C)CC[C@@]2(C(=O)N2C3CCC2CN(C(=O)OC(C)(C)C)C3)CC1=O` [9-50, 3β-O-(3′,3′-Dimethylsuccinyl)-21-oxolup-18-en-28-oic acid N-8-acetylamino-3,8-diaza-bicyclo[3.2.1]octane-3-carboxylic acid tert-butyl ester], the concentration for half-maximal inhibition (IC50) is below 0.199 µM. For the compound `CC(C)C1=C2[C@H]3CC[C@@H]4[C@@]5(C)CC[C@H](OC(=O)CC(C)(C)C(=O)O)C(C)(C)[C@@H]5CC[C@@]4(C)[C@]3(C)CC[C@@]2(C(=O)NCCN)CC1=O` [9-21, 3β-O-(3′,3′-Dimethylsuccinyl)-21-oxolup-18-en-28-oic acid N-(2-amino-ethyl)-acetamide], the IC50 is below 0.199 µM. On the same count and under the same terms, next, `CC(C)C1=C2C3CCC4[C@@]5(C)CC[C@H](OC(=O)CC(C)(C)C(=O)O)C(C)(C)C5CC[C@@]4(C)[C@]3(C)CC[C@@]2(C(=O)NC[C@@H]2CCCN2C(=O)OC(C)(C)C)CC1=O` (stereo partly drawn) [9-80, 3β-O-(3′,3′-Dimethylsuccinyl)-21-oxolup-18-en-28-oic acid N-(S)-2-acetylaminomethyl-pyrrolidine-1-carboxylic acid tert-butyl ester]: below 0.199 µM; `CC(C)C1=C2[C@H]3CC[C@@H]4[C@@]5(C)CC[C@H](OC(=O)CC(C)(C)C(=O)O)C(C)(C)[C@@H]5CC[C@@]4(C)[C@]3(C)CC[C@@]2(C(=O)NC2CCNCC2)CC1=O` [9-31, 3β-O-(3′,3′-Dimethylsuccinyl)-21-oxolup-18-en-28-oic acid N-(4-aminopiperidine)-acetamide]: 0.2 to 0.999 µM. Turning to `CC(C)NC(=O)NCCNC(=O)[C@@]12CC[C@]3(C)[C@H](CC[C@@H]4[C@@]5(C)CC[C@H](OC(=O)CC(C)(C)C(=O)O)C(C)(C)[C@@H]5CC[C@]43C)C1=C(C(C)C)C(=O)C2` [9-23, 3β-O-(3′,3′-Dimethylsuccinyl)-21-oxolup-18-en-28-oic acid N-[2-(3-isopropyl-ureido)-ethyl]-acetamide], the IC50 is below 0.199 µM. For `CC(C)C1=C2[C@H]3CC[C@@H]4[C@@]5(C)CC[C@H](OC(=O)CC(C)(C)C(=O)O)C(C)(C)[C@@H]5CC[C@@]4(C)[C@]3(C)CC[C@@]2(C(=O)Nc2ccncc2)CC1=O` [9-52, 3β-O-(3′,3′-Dimethylsuccinyl)-21-oxolup-18-en-28-oic acid N-pyridin-4-yl-acetamide], the half-inhibitory concentration (IC50) is below 0.199 µM. On the same count and under the same terms, next, `CC(C)C1=C2[C@H]3CC[C@@H]4[C@@]5(C)CC[C@H](OC(=O)CC(C)(C)C(=O)O)C(C)(C)[C@@H]5CC[C@@]4(C)[C@]3(C)CC[C@@]2(C(=O)NC2CCC(F)(F)CC2)CC1=O` [9-85, 3β-O-(3′,3′-Dimethylsuccinyl)-21-oxolup-18-en-28-oic acid N-(4,4-difluoro-cyclohexyl) acetamide]: below 0.199 µM. Turning to `CC(C)C1=C2[C@H]3CC[C@@H]4[C@@]5(C)CC[C@H](OC(=O)CC(C)(C)C(=O)O)C(C)(C)[C@@H]5CC[C@@]4(C)[C@]3(C)CC[C@@]2(C(=O)NCc2cccnc2)CC1=O` [9-17, 3β-O-(3′,3′-Dimethylsuccinyl)-21-oxolup-18-en-28-oic acid N-pyridin-3-ylmethylamide], the IC50 is below 0.199 µM. For `CC(C)C1=C2[C@H]3CC[C@@H]4[C@@]5(C)CC[C@H](OC(=O)CC(C)(C)C(=O)O)C(C)(C)[C@@H]5CC[C@@]4(C)[C@]3(C)CC[C@@]2(C(=O)N2CCNCC2)CC1=O` [9-28, 3β-O-(3′,3′-Dimethylsuccinyl)-21-oxolup-18-en-28-oic acid N-piperazinyl-acetamide], the concentration for half-maximal inhibition (IC50) is below 0.199 µM.

Staying with this experiment, now noted: Human immunodeficiency virus 1, MT2, MT-2 cells, without HS, average IC50 if tested more than once, read-out: MT-2 (HIVIIIB) IC50 range.
On to `CC(C)C1=C2[C@H]3CC[C@@H]4[C@@]5(C)CC[C@H](OC(=O)CC(C)(C)C(=O)O)C(C)(C)[C@@H]5CC[C@@]4(C)[C@]3(C)CC[C@@]2(C(=O)NCc2ccccc2)CC1=O` [9-1, 3β-O-(3′,3′-Dimethylsuccinyl)-21-oxolup-18-en-28-oic acid N-benzylamide], for which the IC50 was below 0.199 µM.

`CNC(=O)[C@@]12CC[C@]3(C)[C@H](CC[C@@H]4[C@@]5(C)CC[C@H](OC(=O)CC(C)(C)C(=O)O)C(C)(C)[C@@H]5CC[C@]43C)C1=C(C(C)C)C(=O)C2` [9-2, 3β-O-(3′,3′-Dimethylsuccinyl)-21-oxolup-18-en-28-oic acid N-methylamide]: the IC50 is below 0.199 µM.
